Assay results taken from patent publication US20200261391A1, “METHODS OF REDUCING THE RISK OF A CARDIOVASCULAR EVENT IN A STATIN-TREATED SUBJECT BY INCREASING SERUM AND PLASMA EPA AND DPA LEVELS” (Amarin Pharmaceuticals Ireland Limited, priority 2019, published 2020).

Experiments:
[1] = system: patients with elevated triglyceride levels on statin therapy; test: REDUCE-IT total (first and subsequent) ischemic events (Example 3; negative binomial, Wei-Lin-Weissfeld, Andersen-Gill, joint frailty models); type: in vivo, human; design: total (first and subsequent) ischemic events for primary composite endpoint, relative risk reduction / first events, reduction / second events, reduction / third events, reduction / fourth or more events, reduction: concentration or dose not given beside the values; settings: for HR (95% CI), Key Secondary Composite Endpoint / HR (95% CI), Primary Composite Endpoint / RR (95% CI), Key Secondary Composite Endpoint, total events / RR (95% CI), Primary Composite Endpoint, total events: full dataset; for RR (95% CI), Key Secondary Composite Endpoint, total events / RR (95% CI), Primary Composite Endpoint, total events: icosapent ethyl vs placebo
Source text: The following study was a multi-center, placebo-controlled clinical trial the details of which are described above in Example 1, the REDUCE-IT design. […] The main outcomes were total primary composite endpoint events defined as cardiovascular death, nonfatal myocardial infarction, nonfatal stroke, coronary revascularization, or hospitalization for unstable angina and total key secondary composite endpoint events defined as cardiovascular death, nonfatal myocardial infarction, or nonfatal stroke. In the context of this study, total events refer to any first event as well as any subsequent event. Differences in total events were determined using other statistical models, including Andersen-Gill, Wei-Lin-Weisfeld (Li and Lagakos), both pre-specified, and a post hoc and joint-frailty analysis.
For the present prespecified analysis, the primary outcome was the total of first plus subsequent ischemic events consisting of the composite of cardiovascular death, nonfatal myocardial infarction, nonfatal stroke, coronary revascularization, or hospitalization for unstable angina. […] Exploratory analyses of the total of first and subsequent events were also performed for the key secondary composite endpoint.
Baseline characteristics were compared between treatment groups using the chi-squared test for categorical variables and the Wilcoxon rank sum test for continuous variables. There are several methods for analyzing first and subsequent (recurrent) event data. As a pre-specified statistical method, a negative binomial regression was used to calculate rates and rate ratios for total cardiovascular events, which accounts for the variability in each patient's risk of events. As pre-specified supportive analyses, the modified Wei-Lin-Weissfeld method (Li and Lagakos modification) was used to calculate hazard ratios (HRs) for the time to the first event, second event, or third event. An additional pre-specified analysis, the Andersen-Gill model using a Cox proportional-hazard with the counting-process formulation was performed to model the total events. In addition, in order to account for informative censoring due to cardiovascular death, the HR for total non-fatal events was calculated using a joint frailty model (See Rondeau V. Joint frailty models for recurring events and death using maximum penalized likelihood estimation: application on cancer events. Biostatistics. 2007; 8:708-21). The joint frailty model simultaneously estimates hazard functions for non-fatal and fatal CV events and takes into account the fact that patients who are prone to have nonfatal events have an elevated risk of a cardiovascular death. The application of the joint frailty model used a gamma distribution for the frailty term.
Statistical analyses using the full adjudicated endpoint events dataset without exclusions using this bundling approach were also determined.

[2] = system: patients with elevated triglyceride levels on statin therapy; test: REDUCE-IT endpoints by pooled (icosapent ethyl and placebo) EPA/AA ratio tertile; type: in vivo, human; settings: icosapent ethyl and placebo pooled
Source text: The objective of this study is to assess the effects of administering icosapent ethyl at 4 g per day to patients from the REDUCE-IT trial of Example 1. More specifically, patients from the REDUCE-IT trial of Example 1 were stratified by their EPA levels into one of three tertiles. Following stratification, the objective was to determine if the RRR differs between patients having EPA levels in the three different tertiles. For the data collected as shown in Tables 38-43 and FIGS. 52, 53, and 56-59, the tertiles were established based on data collected from subjects at 1 year, 2 years, and last visit following icosapent ethyl administration compared to placebo. Data are presented as an average of 1 year, 2 year, […], and end of study values. The data was further analyzed use both pooled and unpooled statistically methods.
Placebo and icosapent ethyl treated subjects were pooled and stratified based on EPA/AA tertiles with […], […], and the highest […]

[3] = Andersen-Gill (I) model, adjusted, vs placebo
[4] = Andersen-Gill (I) model, reduced dataset, vs placebo
[5] = Andersen-Gill (I) model, unadjusted, vs placebo
[6] = Andersen-Gill (II) model, adjusted, vs placebo
[7] = Andersen-Gill (II) model, reduced dataset, vs placebo
[8] = Andersen-Gill (II) model, unadjusted, vs placebo
[9] = Joint frailty model, reduced dataset, vs placebo
[10] = Modified WLW model, reduced dataset, vs placebo
[11] = Modified WLW, first event, adjusted, vs placebo
[12] = Modified WLW, first event, unadjusted, vs placebo
[13] = Modified WLW, second event, adjusted, vs placebo
[14] = Modified WLW, second event, unadjusted, vs placebo
[15] = Modified WLW, third event, adjusted, vs placebo
[16] = Modified WLW, third event, unadjusted, vs placebo
[17] = N = 4089, same-day multiple endpoints handled as a single event
[18] = Negative binomial model, adjusted for stratification factors
[19] = Negative binomial model, reduced dataset, vs placebo
[20] = Negative binomial model, unadjusted
[21] = Wei-Lin-Weissfeld model, Example 3
[22] = per 1000 patients treated for five years
[23] = highest >0.395187 vs lowest ≤0.084337
[24] = highest >0.395187 vs middle >0.084337 to ≤0.395187
[25] = middle >0.084337 to ≤0.395187 vs lowest ≤0.084337

For `CC/C=C\C/C=C\C/C=C\C/C=C\C/C=C\CCCC(=O)OCC` [icosapent ethyl, eicosapentaenoic acid ethyl ester], the “HR (95% CI), Key Secondary Composite Endpoint” value [1, 3] was 0.71, the “HR (95% CI), Primary Composite Endpoint” value [1, 3] was 0.68 and the “Adjusted HR, key secondary composite endpoint, total events” value [1, 4] was 0.72. For the same compound, the “Adjusted HR, primary composite endpoint, total events” value [1, 4] was 0.69, the “Unadjusted HR, key secondary composite endpoint, total events” value [1, 4] was 0.72 and the “Unadjusted HR, primary composite endpoint, total events” value [1, 4] was 0.69. The “HR (95% CI), Key Secondary Composite Endpoint” value [1, 5] was 0.71, the “HR (95% CI), Primary Composite Endpoint” value [1, 5] was 0.68 and the “HR (95% CI), Key Secondary Composite Endpoint” value [1, 6] was 0.71. For the same compound, the “HR (95% CI), Primary Composite Endpoint” value [1, 6] was 0.68, the “Adjusted HR, key secondary composite endpoint, total events” value [1, 7] was 0.72 and the “Adjusted HR, primary composite endpoint, total events” value [1, 7] was 0.69. The “Unadjusted HR, key secondary composite endpoint, total events” value [1, 7] was 0.72, the “Unadjusted HR, primary composite endpoint, total events” value [1, 7] was 0.69 and the “HR (95% CI), Key Secondary Composite Endpoint” value [1, 8] was 0.71. The “HR (95% CI), Primary Composite Endpoint” value [1, 8] was 0.68, the “first events, reduction” value ([1]; Example 3) was 25% and the “fourth or more events, reduction” value ([1]; Example 3) was 48%. For the same compound, the “second events, reduction” value ([1]; Example 3) was 32%, the “third events, reduction” value ([1]; Example 3) was 31% and the “HR, Cardiovascular Death, key secondary endpoint, adjusted” value [1, 9] was 0.79. The “HR, Cardiovascular Death, key secondary endpoint, unadjusted” value [1, 9] was 0.79, the “HR, Cardiovascular Death, primary endpoint, adjusted” value [1, 9] was 0.80 and the “HR, Cardiovascular Death, primary endpoint, unadjusted” value [1, 9] was 0.80. For the same compound, the “HR, Non-fatal Cardiovascular Event, key secondary endpoint, adjusted” value [1, 9] was 0.68, the “HR, Non-fatal Cardiovascular Event, key secondary endpoint, unadjusted” value [1, 9] was 0.68 and the “HR, Non-fatal Cardiovascular Event, primary endpoint, adjusted” value [1, 9] was 0.67. For the same compound, the “HR, Non-fatal Cardiovascular Event, primary endpoint, unadjusted” value [1, 9] was 0.66, the “Adjusted HR, key secondary composite endpoint, first event” value [1, 10] was 0.74 and the “Adjusted HR, key secondary composite endpoint, second event” value [1, 10] was 0.75. For the same compound, the “Adjusted HR, key secondary composite endpoint, third event” value [1, 10] was 0.79, the “Adjusted HR, primary composite endpoint, first event” value [1, 10] was 0.75 and the “Adjusted HR, primary composite endpoint, second event” value [1, 10] was 0.68. The “Adjusted HR, primary composite endpoint, third event” value [1, 10] was 0.69, the “Unadjusted HR, key secondary composite endpoint, first event” value [1, 10] was 0.74 and the “Unadjusted HR, key secondary composite endpoint, second event” value [1, 10] was 0.75. The “Unadjusted HR, key secondary composite endpoint, third event” value [1, 10] was 0.79, the “Unadjusted HR, primary composite endpoint, first event” value [1, 10] was 0.76 and the “Unadjusted HR, primary composite endpoint, second event” value [1, 10] was 0.69. For the same compound, the “Unadjusted HR, primary composite endpoint, third event” value [1, 10] was 0.69, the “HR (95% CI), Key Secondary Composite Endpoint” value [1, 11] was 0.74 and the “HR (95% CI), Primary Composite Endpoint” value [1, 11] was 0.75. For the same compound, the “HR (95% CI), Key Secondary Composite Endpoint” value [1, 12] was 0.74, the “HR (95% CI), Primary Composite Endpoint” value [1, 12] was 0.76 and the “HR (95% CI), Key Secondary Composite Endpoint” value [1, 13] was 0.75. The “HR (95% CI), Primary Composite Endpoint” value [1, 13] was 0.68, the “HR (95% CI), Key Secondary Composite Endpoint” value [1, 14] was 0.75 and the “HR (95% CI), Primary Composite Endpoint” value [1, 14] was 0.69. The “HR (95% CI), Key Secondary Composite Endpoint” value [1, 15] was 0.79, the “HR (95% CI), Primary Composite Endpoint” value [1, 15] was 0.70 and the “HR (95% CI), Key Secondary Composite Endpoint” value [1, 16] was 0.79. The “HR (95% CI), Primary Composite Endpoint” value [1, 16] was 0.70, the “Key secondary endpoint: Total events before reduction, % of overall events” value ([1]; N = 4089) was 42.0% and the “Primary endpoint: Total events before reduction, % of overall events” value ([1]; N = 4089) was “(40.7) %”. The “Key secondary endpoint: Fatal events, % of overall events” value ([1]; N = 4089, after reduction) was 45.0%, the “Key secondary endpoint: Non-fatal events, % of overall events” value ([1]; N = 4089, after reduction) was 40.9% and the “Primary endpoint: Fatal events, % of overall events” value ([1]; N = 4089, after reduction) was “(45.0) %”. The “Primary endpoint: Non-fatal events, % of overall events” value ([1]; N = 4089, after reduction) was “(40.4) %”, the “Key secondary endpoint: Total events after reduction, % of overall events” value [1, 17] was 42.1% and the “Primary endpoint: Total events after reduction, % of overall events” value [1, 17] was “(41.0) %”. The “RR (95% CI), Key Secondary Composite Endpoint, total events” value [1, 18] was 0.71, the “RR (95% CI), Primary Composite Endpoint, total events” value [1, 18] was 0.69 and the “Adjusted RR, key secondary composite endpoint, total events” value [1, 19] was 0.72. For the same compound, the “Adjusted RR, primary composite endpoint, total events” value [1, 19] was 0.70, the “Unadjusted RR, key secondary composite endpoint, total events” value [1, 19] was 0.71 and the “Unadjusted RR, primary composite endpoint, total events” value [1, 19] was 0.68. For the same compound, the “RR (95% CI), Key Secondary Composite Endpoint, total events” value [1, 20] was 0.71, the “RR (95% CI), Primary Composite Endpoint, total events” value [1, 20] was 0.67 and the “first occurrence of primary composite endpoint, HR” value [1, 21] was 0.75. The “second occurrence of primary composite endpoint, HR” value [1, 21] was 0.68, the “total (first and subsequent) ischemic events for primary composite endpoint, relative risk reduction” value ([1]; in vivo) was 30% and the cardiovascular deaths prevented [1, 22] was 12. The coronary revascularizations prevented [1, 22] was 76, the “episodes of hospitalization for unstable angina prevented” value [1, 22] was 16 and the myocardial infarctions prevented [1, 22] was 42. For the same compound, the strokes prevented [1, 22] was 14, the “total primary endpoint events prevented” value [1, 22] was “approximately 159” and the “total key secondary endpoint event rate” value ([1]; placebo 44) was 32 per 1000 patient years. For the same compound, the “total (first and subsequent) primary endpoint event rate” value ([1]; placebo 89) was 61 per 1000 patient years, the “total key secondary endpoint events, RR” value ([1]; vs placebo) was 0.72 and the “total primary endpoint events, rate ratio (RR)” value ([1]; vs placebo) was 0.70. The “HR (95% CI), Key Secondary Endpoint, pooled EPA/AA ratio tertiles, Highest vs Lowest” value [2, 23] was 0.57 (0.48,0.68), the “HR (95% CI), Primary Endpoint, pooled EPA/AA ratio tertiles, Highest vs Lowest” value [2, 23] was 0.64 (0.56, 0.73) and the “HR (95% CI), Key Secondary Endpoint, pooled EPA/AA ratio tertiles, Highest vs Middle” value [2, 24] was 0.75 (0.63, 0.89). The “HR (95% CI), Primary Endpoint, pooled EPA/AA ratio tertiles, Highest vs Middle” value [2, 24] was 0.84 (0.73, 0.96), the “HR (95% CI), Key Secondary Endpoint, pooled EPA/AA ratio tertiles, Middle vs Lowest” value [2, 25] was 0.76 (0.65, 0.89) and the “HR (95% CI), Primary Endpoint, pooled EPA/AA ratio tertiles, Middle vs Lowest” value [2, 25] was 0.77 (0.67, 0.87).
